Results taken from patent US8088779B2, “Pyrazolo [1,5-alpha] pyrimidinyl derivatives useful as corticotropin-releasing factor (CRF) receptor antagonists” (SmithKline Beecham (Cork) Limited, priority 2005, dated 2012).

What was measured:
[1] = Thermodynamic relationship between Form 1 and Form 2 calculated from DSC melting data (method of Lian Yu); format: physicochemical; details: for transition temperature: Form 2 T=110.35° C., ΔH=83.43 J/g; for thermodynamic relationship between the polymorphs (monotropic or enantiotropic): based on DSC data
Experimental: For a polymorphic substance, a property of particular interest is the relative thermodynamic stability of the polymorphs. The questions to be answered are the following:
b) for an enantiotropic system, where (Tt) lies.
The thermodynamic relationship between Form 1 and Form 2 of compound of Formula (I) was calculated using the melting data of polymorphs measured by DSC, according to what disclosed in: Lian Yu, Journal of Pharmaceutical Science, Vol. 84, No. 8, August 1995.
Taking samples of Form 1 and Form 2 as pure forms 1 and 2 respectively, and using the melting point and the ΔH obtainable by DSC data, it was possible to calculate the thermodynamic relationship and the transition temperature.
The above calculation has been performed using DSC data for a different sample of polymorph Form 1 of compound of Formula (I), showing the Differential Scanning Calorimetry (DSC) thermogram of FIG. 7, obtained by the same method discussed above.

[2] = Slurry conversion of a mixture of the two polymorphs, solid examined by XRPD; format: physicochemical; details: 20.4 mg Form 1 + 21.3 mg Form 2 in saturated ethyl acetate/heptane=1/2 solution of Form 1, stirred at RT one day
Experimental: A saturated solution in ethyl acetate/heptane=½ of Form 1 of compound of Formula (I) (25 mg in 400 μL) was prepared.
20.4 mg of solid Form 1 of compound of Formula (I) were mixed with 21.3 mg of solid Form 2 of compound of Formula (I). That solid mixture was added to the above saturated solution. The slurry so obtained was stirred at RT one day long. The day after, the solid and liquid phase were separated by centrifugation, and the solid was simply left on air in order to dry and then examined by XPRD.

[3] = Form 1 sample of FIG. 6 (T=102.44° C., ΔH=71.18 J/g)
[4] = Form 1 sample of FIG. 7 (T=100.09° C., ΔH=75.46 J/g)

**Q.** For `CC[C@H](Nc1cc(C)nc2c(-c3ccc(OC)cc3C)c(C)nn12)c1nc(C)no1` [Form 2, [3-(4-methoxy-2-methyl-phenyl)-2,5-dimethyl-pyrazolo[1,5-a]pyrimidin-7-yl]-[(S)-1-(3-methyl-[1,2,4]oxadiazol-5-yl)-propyl]-amine], which transition temperature [1, 3] is on record?
**A.** 177 °C

**Q.** What about the transition temperature [1, 4] of the same compound?
**A.** 356 °C

**Q.** What about the “thermodynamic relationship between the polymorphs (monotropic or enantiotropic)” value [1] of the same compound?
**A.** monotropic relationship

**Q.** And the “solid form after slurrying a mixture of Form 1 and Form 2” value [2]?
**A.** the solid was only constituted by Form 2

**Q.** Which results are given for `CC[C@H](Nc1cc(C)nc2c(-c3ccc(OC)cc3C)c(C)nn12)c1nc(C)no1` [Form 1, [3-(4-Methoxy-2-methyl-phenyl)-2,5-dimethyl-pyrazolo[1,5-a]pyrimidin-7-yl]-[(S)-1-(3-methyl-[1,2,4]oxadiazol-5-yl)-propyl]-amine]?
**A.** transition temperature [1, 3]: 177 °C; transition temperature [1, 4]: 356 °C; thermodynamic relationship between the polymorphs (monotropic or enantiotropic) [1]: monotropic relationship
